The source of these data is patent US20040022777A1, “Fragments and antagonists of heat shock protein 60” (priority 1999, published 2004).

Ends that are not written are not given here.

Format in all cases: cell-based, mouse
Data set [1] relates to bone marrow-derived macrophages of C3H/HeJ mice (mutant Toll-like receptor 4). As to the kind of experiment: NO (nitrite) production by bone marrow-derived macrophages with mutant Tlr4 (Griess reaction). The conditions noted are these: Tlr4 wild-type compared with Tlr4 defective macrophages; oligonucleotide 30 μg/ml; 24 h. A general note: Griess reagent forms a coloured azo dye with nitrite.

The test system is the same in data set [2]. As to the kind of experiment: TNFα production by bone marrow-derived macrophages with mutant Tlr4 (sandwich ELISA). The conditions noted are these: C3H/HeJ macrophages; LPS 10 ng/ml, hsp60 10 μg/ml, oligonucleotides 30 μg/ml; 6 h.
The test system of data set [3] is hsp60 induced TNFα and Nitric oxide (NO) secretion in J774 cells. The data set can be described thus: Screening of 10-mer peptides for inhibition of hsp60 induced (and CpG induced) TNFα secretion. The conditions noted are these: crude peptides at a dilution of 1:10. As to the method:
The crude peptides were re-suspended in 500 μl water and tested at a dilution of 1:10, for inhibition of hsp60 induced TNFα and Nitric oxide (NO) secretion in J774 cells (as described in example no. 1 of the application). Selected peptides were tested (in an equivalent assay) also for inhibition of CpG induced TNFα secretion. CpG is a non-specific immunostimulatory oligonucleotide motif with the sequence: […]. CpG DNA: a novel immunomodulator Trends Microbiol 1999; 7:64-5). CpG stimulates J774 cells to produce TNFα in a mechanism different to that used by hsp60 and thus serves as a negative control for non-selective inhibition of TNF secretion (which is not mediated through specific inhibition of hsp60). […] The peptides in this chart were selected for re-screening based on the activity found in screening all the 192 peptides synthesized. The results are presented as percent inhibition of TNF-secretion in response to induction with hsp60 or CpG, and are the average of two repeats.

The subject of data set [4] is bone marrow-derived macrophages of C57BL/6 and C3H/HeN mice. As to the kind of experiment: TNFα production by bone marrow-derived macrophages with wild-type Tlr4 (sandwich ELISA). The conditions noted are these: C57BL/6 and C3H/HeN macrophages; LPS 10 ng/ml, hsp60 10 μg/ml; 6 h. (ELISA stands for enzyme-linked immunosorbent assay.)
The test system is the same in data set [5]. As to the kind of experiment: NO (nitrite) production by bone marrow-derived macrophages with wild-type Tlr4 (Griess reaction). The conditions noted are these: C57BL/6 and C3H/HeN macrophages; LPS 10 ng/ml, hsp60 10 μg/ml; 24 h.

As to “5′-ACCGATAACGTTGCCGGTGACG-3′ (DNA ACCGATAACGTTGCCGGTGACG; chemistry not given here) [Pal+, immunostimulatory oligonucleotide containing a CpG motif]”, the “NO response / NO formation in the two macrophage types” value (shortened to “NO response / NO formation”) in data set [1] is given as “failed to induce NO formation”. Moreover, the TNFα response entry in data set [2] is listed as “less stimulatory”.

Turning to “5′-TCCATGACGTTCCTGATGCT-3′ (DNA TCCATGACGTTCCTGATGCT; chemistry not given here) [ODN1668, immunostimulatory oligonucleotide containing a CpG motif]”, in data set [1], the “NO response / NO formation” value is reported as “very similar NO response”. In data set [2], the TNFα response result is recorded as “strong TNFα response”.

For “5′-TCCATGAGCTTCCTGATGCT -3′ (DNA TCCATGAGCTTCCTGATGCT; chemistry not given here) [ODN1720, non-stimulatory oligonucleotide lacking a CpG motif]”, the “NO response / NO formation” value in data set [1] is given as “failed to induce NO formation”. For the same substance, the TNFα response result in data set [2] was “did not provoke a response”.

Regarding KVGGTSDVEV [Peptide No. 175], in data set [3], the “inhibition of hsp60 induced TNFα secretion, activity and specificity versus CpG induced TNFα secretion” value is “hsp60-inhibiting”.

For the substance “Lipopolysaccharide [LPS, reference compound]”, the TNFα secretion entry in data set [4] is listed as “rapid secretion of large amounts of TNFα”. Further, the NO production result in data set [5] is recorded as “responded”. Further, the TNFα response entry in data set [2] is “no response”.

As for VLKVGGTSDV [Peptide No. 173], the “inhibition of hsp60 induced TNFα secretion, activity and specificity versus CpG induced TNFα secretion” value in data set [3] was “hsp60-inhibiting”.
